{
  "source": "patent US10329243B2",
  "about": "“Biphenyl derivative and uses thereof” (XI'AN LIBANG PHARMACEUTICAL CO., LTD, priority 2015, dated 2019)",
  "assay_type_in_all_cases": "in vivo, SD rats",
  "details_in_all_cases": "rat, in vivo",
  "key": {"SOD [1]": {"system": "SOD", "test": "SOD determination, cerebral ischemic reperfusion MCAO model", "experimental": "(§1) Rats were intraperitoneally injected with 10% chloral hydrate 350 mg/kg after anesthesia and opened up at the center of the neck in accordance with the Zea Longa modified method. The right common carotid artery was separated, and the right external carotid artery branches was ligated. A small opening was made at the distal end of the external carotid artery, and a previously prepared thread was inserted through the common carotid artery and the external carotid artery bifurcation into the internal carotid artery, till the anterior end of the middle cerebral artery, with an immersed depth of 18 to 19 mm. The thread was then secured, and the wound was sutured layer by layer. After the operation, the rats were placed in a clean incubator to wake up. […] The sham operation group, the ischemic reperfusion group, and the Example groups were prepared strictly according to the requirements of the cerebral ischemic reperfusion model, while in the sham operation group the thread was put only into the external carotid artery. The animals were allowed to eat and drink freely after waking up. After 2 h, the thread was pulled out to achieve reperfusion. The sham operation group, the ischemic reperfusion group, and the Example groups were administered intravenously the aqueous solution of the biphenyl derivatives in PEG400 at 40 mg/kg (40 mg/kg means that 40 mg of the test compound per kg of the body weight of rats) 30 min before reperfusion and 12 h after reperfusion, respectively. The sham operation group and the ischemic reperfusion group were injected with the same amount of blank PEG400 aqueous solution at the same time point.\n(§2) 24 hours after reperfusion, 8 rats in each group were sacrificed by decapitation, the brain was removed, rinsed with PBS (pH 7.4) at −20° i for 20 min, evenly sliced (with a thickness of 2 mm), stained in a 2% TTC solution at 37°% in the dark for 30 min, fixed in 10% formalin for 24 h, and photographs were taken to analyze the infarct volume. A mixture of femoral arterial and venous blood was drawn from another 8 rats in each group under anesthesia, placed in a low temperature centrifuge at 4° C., centrifuged at 3500 r/min for 20 min, and the supernatant was stored in a refrigerator at −20° C. ready for SOD and MDA detection. After the blood was drawn, a perfusion needle was insert through the apex to the ascending aorta, and saline at 4° C. was rapid infused until the effluent became clear, followed by 4% paraformaldehyde phosphate buffer perfusion for fixation; the brain was removed by craniotomy, and brain tissues 2 mm in front of and behind the optic chiasma were taken and fixed, dehydrated, rendered transparent, impregnated in wax, and embedded. Brain continuous coronary tissue pathological sections were consecutively cut for later use. The remaining 8 rats in each group were sacrificed, brains were removed, the ischemic brain hemispheres were immediately taken on an ice tray, and 10% brain tissue homogenate was prepared for the detection of IL-1β and TNF-α.\n(§3) SOD and MDA were determined strictly in accordance with instructions of the kit."}, "MDA [2]": {"system": "MDA", "test": "MDA determination, cerebral ischemic reperfusion MCAO model", "experimental": "as §1, §2, §3"}, "Fas [3]": {"system": "Fas", "test": "Fas determination (immunohistochemical method), cerebral ischemic reperfusion MCAO model", "experimental": "as §1, §2\n(§4) The immunohistochemical method was used for determination. Brain tissue paraffin sections were dewaxed into water, washed with 3% H2O2 to eliminate endogenous peroxidase activity, and rinsed with distilled water for 3 times. Sodium citrate buffer was used for antigen heat repairing, and blocking with calf serum was carried out at room temperature for 15 min; a rabbit anti-mouse Fas antibody was added dropwise, allowed to stand at 4°t overnight, biotinylated goat anti-rabbit IgG was added dropwise, and heated in a water bath at 37°a for 20 min. Washing with PBS for 5 min was continuously repeated 4 times, followed by staining with DAB and sufficient washing without counterstaining. The sections were then gradient dehydrated with alcohol, made transparent with toluene, sealed and fixed. Images were captured by a video camera under high-power optical microscope and inputted into the image analysis system for image analysis. […]"}, "SOD [4]": {"system": "SOD", "test": "SOD determination, permanent cerebral ischemia model", "experimental": "as §1, with “the permanent cerebral ischemia model” for “the ischemic reperfusion”, “up.” for “up. After 2 h, the thread was pulled out to achieve reperfusion.”, “before insertion of thread” for “before reperfusion”, “after embolism,” for “after reperfusion,”\nas §2, with “the embolism,” for “reperfusion,”, “−20°i” for “−20° i”\nas §3"}, "MDA [5]": {"system": "MDA", "test": "MDA determination, permanent cerebral ischemia model", "experimental": "as §1, with “the permanent cerebral ischemia model” for “the ischemic reperfusion”, “up.” for “up. After 2 h, the thread was pulled out to achieve reperfusion.”, “before insertion of thread” for “before reperfusion”, “after embolism,” for “after reperfusion,”\nas §2, with “the embolism,” for “reperfusion,”, “−20°i” for “−20° i”\nas §3"}, "Fas [6]": {"system": "Fas", "test": "Fas determination (immunohistochemical method), permanent cerebral ischemia model", "experimental": "as §1, with “the permanent cerebral ischemia model” for “the ischemic reperfusion”, “up.” for “up. After 2 h, the thread was pulled out to achieve reperfusion.”, “before insertion of thread” for “before reperfusion”, “after embolism,” for “after reperfusion,”\nas §2, with “the embolism,” for “reperfusion,”, “−20°i” for “−20° i”\nas §4"}},
  "data": [
    {"molecule": "CC(C)c1cccc(C(C)C)c1O", "note": "[Propofol injection, propofol, reference compound]", "values": [
      {"measurement": "SOD ACTIVITY (U/mL)", "setting": "SOD [1]", "result": "88.25 ± 2.19", "unit": "U/mL"},
      {"measurement": "MDA CONTENT", "setting": "MDA [2]", "result": "5.58 ± 0.48", "unit": "mmol/mL"},
      {"measurement": "Fas average gray scale", "setting": "Fas [3]", "result": "142.15 ± 5.71"},
      {"measurement": "SOD ACTIVITY (U/mL)", "setting": "SOD [4]", "result": "89.13 ± 3.82", "unit": "U/mL"},
      {"measurement": "MDA CONTENT", "setting": "MDA [5]", "result": "6.10 ± 0.29", "unit": "mmol/mL"},
      {"measurement": "Fas average gray value", "setting": "Fas [6]", "result": "140.51 ± 4.84"}
    ]}
  ]
}
